Laboratory results taken from patent US20160030407A1, “Method of Treating Inflammatory Lung Disease” (priority 2010, published 2016).
Values joined by “and” are separate entries in the source; they are usually repeats but may differ in a detail not shown here. Identical values can stand only once. “Also recorded” adds a separate entry of the source.

Tests used:
[1] = Single i.v. dose toxicity: hematology; type: in vivo, Sprague-Dawley rats
Text: (§1) On day 15, urine was collected on all surviving animals for urinalysis. The animals were euthanized and bled via cardiac puncture. Blood was collected for hematology, clinical chemistry, and coagulation analysis. Tissues were collected, weighed, and stored in 10% neutral-buffered formalin for possible future analysis.

NFκB = NFκB luciferase assay (inhibition of TNFα-induced NFκB activity); type: cell-based, Human; details: HEK293 with NFκB luciferase reporter challenged with TNFα
Protocol: The smokeless tobacco used in these experiments was plain long-leaf Copenhagen tobacco purchased from a local vendor. Crude extract was extracted with methanol and water and clarified by centrifugation and filtration. The alkaloid extract was prepared from sodium hydroxide and methanol extraction, organic phase separation and purification. All treatment samples were prepared as a function of weight (μg/ml), and all samples were diluted in DMSO.
Human […] kidney cells (HEK293) transfected with an NFκB luciferase reporter were challenged with TNFα for three hours, then samples were applied to the challenged cells.
The effect of S-(−)-anatabine on TNFα-induced NFκB activity in vitro was determined as described in Example 1.

[2] = Single i.v. dose toxicity: coagulation (aPTT, PT); type: in vivo, Sprague-Dawley rats; details: for ACTIVE PARTIAL THROMBOPLASTIN TIME: nicotine 0.75 mg/kg single i.v. dose, tartrate
Text: as §1

[3] = Single i.v. dose toxicity: necropsy observations and organ weights; type: in vivo, Sprague-Dawley rats
Protocol: (§2) Body weight and food consumption was measured daily for 14 days. On day 15, urine was collected on all surviving animals. The animals were euthanized and bled via cardiac puncture, and blood was collected for analysis. Tissues were collected, weighed, evaluated for gross abnormalities, and stored in 10% neutral-buffered formalin.
as §1

[4] = Physical signs after single i.v. dose (Example 3); type: in vivo, Sprague-Dawley rats; details: rat, nicotine 0.4 mg/kg, anatabine 0.10, 0.75, 1.0 mg/kg, tartrate
Protocol: Four aliquots of each dose level formulation were collected and stored at −80° C. The test compound, corresponding dose level, number of animals, and sample collection times for Phase I of the study are shown in Table 3. The test compound, corresponding dose level, number of animals, and sample collection times for Phase II of the study are shown in Table 4. The physical signs of each animal were monitored following administration of the test compound.

[5] = Single i.v. dose toxicity: body weights and food consumption; type: in vivo, Sprague-Dawley rats; details: for Average Daily Food Consumption per Rat: Nicotine 0.75 mg/kg; for Mean weight increase by day 14: single i.v. 0.75 mg/kg nicotine
Protocol: as §2
All animals were observed daily.

nAChR α7 = molecular target: T1, nAChR α7 (Homo sapiens, UniProt P36544); assay: nAChR α7 channel agonist assay (FLIPR); type: cell-based; details: in presence of PNU-120596; maximal stimulation not achieved
T1 construct: host or cells: CHO cells coexpressing RIC-3
Protocol: Briefly, cells were incubated with […] dye for 30 min at 37° C.
Therefore, the assay of agonist activity for either Ach or for the test articles was conducted in the presence of the positive allosteric modulator.

[6] = 0.75 mg/kg nicotine, female rats, individual animals
[7] = 0.75 mg/kg nicotine, female rats, individual animals, tartrate
[8] = 0.75 mg/kg nicotine, male rats, individual animals
[9] = 0.75 mg/kg nicotine, male rats, individual animals, tartrate
[10] = 0.75 mg/kg, gender F, group mean
[11] = 0.75 mg/kg, gender M, group mean
[12] = Group E: Nicotine 0.75 mg/kg (Females), individual animals, tartrate
[13] = Group E: Nicotine 0.75 g/kg Males), individual animals, tartrate
[14] = female animals, Nicotine 0.75 mg/kg, n = 3
[15] = male rats, single i.v. 0.75 mg/kg nicotine, day 15

T1 sequence (P36544 23-502): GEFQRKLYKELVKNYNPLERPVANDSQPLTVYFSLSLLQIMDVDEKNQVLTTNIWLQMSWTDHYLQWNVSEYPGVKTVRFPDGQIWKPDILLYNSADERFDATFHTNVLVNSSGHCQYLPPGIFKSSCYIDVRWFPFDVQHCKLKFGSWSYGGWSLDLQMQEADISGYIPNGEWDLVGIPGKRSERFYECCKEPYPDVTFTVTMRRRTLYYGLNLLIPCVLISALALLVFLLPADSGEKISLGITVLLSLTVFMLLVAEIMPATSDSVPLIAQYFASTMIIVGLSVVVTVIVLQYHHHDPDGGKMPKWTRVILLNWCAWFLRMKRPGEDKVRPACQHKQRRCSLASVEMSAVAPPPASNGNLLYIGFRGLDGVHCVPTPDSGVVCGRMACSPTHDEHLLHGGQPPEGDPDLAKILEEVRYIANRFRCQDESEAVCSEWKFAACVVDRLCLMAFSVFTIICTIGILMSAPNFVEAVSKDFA

CN1CCCC1c1cccnc1.O=C(O)C(O)C(O)C(=O)O (single isomer, unassigned; (-)) [Nicotine, (−) Nicotine hydrogen tartrate, reference compound]
ANISOCYTOSIS [1, 6]: SLIGHT | BASOPHIL [1, 6]: 0% | EOSINOPHIL [1, 6]: 0% | POLYCHROMASIA [1, 6]: SLIGHT | LYMPHOCYTE [1, 7]: 83% and 87% and 89% | MCHC [1, 7]: 34% | MONOCYTE [1, 7]: 2% and 1% and 0% | NEUTROPHILSEG [1, 7]: 15% and 12% and 11% | RE[…] [1, 7]: 5.8% and 4.9% and 4.5% | ANISOCYTOSIS [1, 8]: SLIGHT | BASOPHIL [1, 8]: 0% | EOSINOPHIL [1, 8]: 0% | POLYCHROMASIA [1, 8]: SLIGHT | HCT [1, 9]: 50% | LYMPHOCYTE [1, 9]: 86% and 87% and 80% and 90% | MONOCYTE [1, 9]: 2% (3×) and 4% | NEUTROPHILSEG [1, 9]: 12% and 11% and 16% and 8% | RE[…] [1, 9]: 4.3% and 4.8% and 5.6% and 6.1% | BASOPHIL [1, 10]: 0.0% | EOSINOPHIL [1, 10]: 0.0% | HGB [1, 10]: 16.0 g/dL | MONOCYTE [1, 10]: 1.0% | PLATELET COUNT [1, 10]: 1.363e+06 µL⁻¹ | RBC [1, 10]: 8e+06 µL⁻¹ | RE[…] [1, 10]: 5.1% | WBC [1, 10]: 10200 µL⁻¹ | BASOPHIL [1, 11]: 0.0% | EOSINOPHIL [1, 11]: 0.0% | MCHC [1, 11]: 34.0% | MONOCYTE [1, 11]: 2.5% | PLATELET COUNT [1, 11]: 1.3558e+06 µL⁻¹ | RBC [1, 11]: 7.6e+06 µL⁻¹ | RE[…] [1, 11]: 5.2% | WBC [1, 11]: 11400 µL⁻¹ | mean corpuscular volume (MCV) and mean corpuscular hemoglobin (MCH) vs control ([1]; female rats, […] anatabine, 0.75 mg/kg nicotine i.v.): small, but statistically significant decreases | Effect on TNFα-induced NFκB-mediated transcription of luciferase (NFκB): reduce TNFα-induced NFκB-mediated transcription | aPTT vs vehicle control ([2]; male and female rats, nicotine 0.75 mg/kg): significantly lower relative to the vehicle control group | ACTIVE PARTIAL THROMBOPLASTIN TIME ([2]; female rats, individual animals E6, E9): 15 s | ACTIVE PARTIAL THROMBOPLASTIN TIME ([2]; male rats, individual animals E1, E2, E3, E5): 15 s | Tissue Collection Weights: Heart [3, 12]: 0.83 g | Tissue Collection Weights: Lungs [3, 12]: 1.20 g | Tissue Collection Weights: Ovaries/uterus [3, 12]: 0.92 g | Tissue Collection Weights: Small intestine [3, 12]: 0.41 g and 0.40 g and 0.28 g | Tissue Collection Weights: Spleen [3, 12]: 0.46 g (2×) and 0.76 g | Tissue Collection Weights: Thymus [3, 12]: 0.54 g and 0.48 g (2×) | Tissue Collection Weights: Brain [3, 13]: 1.90 g | Tissue Collection Weights: Heart [3, 13]: 1.20 g | Tissue Collection Weights: Prostate [3, 13]: 0.41 g and 0.28 g (2×) and 0.45 g | Tissue Collection Weights: Small intestine [3, 13]: 0.71 g and 0.56 g and 0.53 g and 0.40 g | Tissue Collection Weights: Spleen [3, 13]: 0.81 g and 0.62 g and 0.78 g and 0.86 g | Tissue Collection Weights: Thymus [3, 13]: 0.54 g and 0.46 g and 0.56 g and 0.76 g | Organ Weight Brain, Mean [3, 14]: 1.86 g | Organ Weight Heart, Mean [3, 14]: 0.99 g | Organ Weight Kidneys, Mean [3, 14]: 2.31 g | Organ Weight Liver, Mean [3, 14]: 9.59 g | Organ Weight Lungs, Mean [3, 14]: 1.32 g | Organ Weight Ovaries/uteris, Mean [3, 14]: 1.28 g | Organ Weight, Small intestine (mean) [3, 14]: 0.36 g | Organ Weight, Spleen (mean) [3, 14]: 0.56 g | Organ Weight, Thymus (mean) [3, 14]: 0.50 g | Organ Weight, Prostate (mean) [3, 15]: 0.36 g | Organ Weight, Small intestine (mean) [3, 15]: 0.55 g | Organ Weight, Spleen (mean) [3, 15]: 0.77 g | Organ Weight, Thymus (mean) [3, 15]: 0.58 g | organ weights vs vehicle controls ([3]; nicotine 0.75 mg/kg, heart, liver and kidneys in males, thymus and heart in females): significantly lower than those of the corresponding vehicle controls | physical signs post dose [4]: experienced tremors immediately post dose; also recorded: experienced labored breathing | Average Daily Food Consumption per Rat ([5]; Female, day 6, cages 1 and 2, tartrate): 20.0 grams | Average Daily Food Consumption per Rat ([5]; Males, day 8, cages 1 and 2, tartrate): 24.0 grams | day 13 B.W. ([5]; individual male rats, single i.v. 0.75 mg/kg, tartrate, 0.75 mg/kg): 330 g | B.W. day 6 ([5]; nicotine 0.75 mg/kg single i.v. dose, day 6, male rats (individual animals), tartrate): 270 g | Mean weight increase by day 14 ([5]; female rats): 40.8 g | Mean weight increase by day 14 ([5]; male rats, listed as nicotine, tartrate, 0.75 mg/kg): significantly lower than the controls | Mean weight increase by day 14 ([5]; male rats, tartrate, 0.75 mg/kg): 98.5 g | agonist activity (nAChR α7): showed agonist activity
